Measurements as given in patent US11051515B2, “3-acyl-benzamides and their use as herbicides” (Bayer Aktiengesellschaft, priority 2017, dated 2021).

Experiments:
[1] = tested on: MATIN; experiment: Post-emergence action against MATIN; type: in vivo, Matricaria inodora; conditions: post-emergence, dosage 80 g/ha, visual assessment about 3 weeks after treatment vs untreated controls
Method in brief: (§1)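 Weeds grown in sandy loam in greenhouse, treated at one-leaf stage (2–3 weeks after sowing) with WP or EC formulations sprayed as aqueous suspension/emulsion at 600 to […] water with 0.2% wetting agent. Visual rating after about 3 weeks versus untreated controls, as % herbicidal action (100% = plants dead, 0% = like control).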

[2] = tested on: PHBPU; experiment: Post-emergence action against PHBPU; type: in vivo, Pharbitis purpurea; conditions: post-emergence, dosage 80 g/ha
Method in brief: as §1

[3] = tested on: DIGSA; experiment: Post-emergence action against DIGSA; type: in vivo, Digitaria sanguinalis; conditions: dosage 80 g/ha, visual assessment about 3 weeks after treatment vs untreated controls
Procedure: Seeds of monocotyledonous and dicotyledonous weed and crop plants are laid out in sandy loam soil in wood-fiber pots, covered with soil and cultivated in a greenhouse under good growth conditions. 2 to 3 weeks after sowing, the test plants are treated at the one-leaf stage. The compounds of the invention, formulated in the form of wettable powders (WP) or as emulsion concentrates (EC), are then sprayed onto the green parts of the plants in the form of an aqueous suspension or emulsion at a water application rate equating to […], with addition of 0.2% wetting agent. After the test plants have been left to stand in the greenhouse under optimal growth conditions for about 3 weeks, the action of the preparations is assessed visually in comparison to untreated controls (herbicidal action in percent (%): 100% activity=the plants have died, 0% activity=like control plants). […] At the same time, inventive compounds leave Gramineae crops such as barley, wheat, rye, millet/Sorghum, corn or rice virtually undamaged when applied post-emergence, even at high active ingredient dosages. In addition, some substances are also harmless to dicotyledonous crops such as soya, cotton, oilseed rape, sugar beet or potatoes. Some of the compounds according to the invention have high selectivity and are therefore suitable for controlling unwanted vegetation in agricultural crops by the post-emergence method. The data of Tables B18 to B34 below illustrate, in an exemplary manner, the […] herbicidal action of the compounds according to the invention, the herbicidal activity being stated in percent.

[4] = tested on: PHBPU; experiment: Pre-emergence action against PHBPU; type: in vivo, Pharbitis purpurea; conditions: Dosage 320 g/ha, pre-emergence
Method in brief: (§2)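 Seeds sown in sandy loam in wood-fiber pots and covered with soil. Greenhouse growth; visual damage scored after 3 weeks versus untreated controls (100% = dead, 0% = like control).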

[5] = tested on: AMARE; experiment: Post-emergence action against AMARE; type: in vivo, Amaranthus retroflexus; conditions: post-emergence, dosage 80 g/ha, visual assessment about 3 weeks after treatment vs untreated controls
Method in brief: as §1

[6] = tested on: HORMU; experiment: Pre-emergence action against HORMU; type: in vivo, Hordeum murinum; conditions: Dosage 320 g/ha
Method in brief: as §2

[7] = tested on: ECHCG; experiment: Post-emergence action against ECHCG; type: in vivo, Echinochloa crus-galli; conditions: post-emergence, dosage 80 g/ha, visual assessment about 3 weeks after treatment vs untreated controls
Method in brief: as §1

[8] = tested on: VIOTR; experiment: Post-emergence action against VIOTR; type: in vivo, Viola tricolor; conditions: post-emergence, dosage 80 g/ha
Method in brief: as §1

[9] = tested on: DIGSA; experiment: Pre-emergence action against DIGSA; type: in vivo, Digitaria sanguinalis; conditions: dosage 320 g/ha, scored visually after 3 weeks vs untreated controls
Method in brief: as §2

[10] = tested on: STEME; experiment: Pre-emergence action against STEME; type: in vivo, Stellaria media; conditions: Dosage 320 g/ha, pre-emergence
Method in brief: as §2

[11] = tested on: SETVI; experiment: Pre-emergence action against SETVI; type: in vivo, Setaria viridis; conditions: pre-emergence, dosage 320 g/ha, scored visually after 3 weeks vs untreated controls
Method in brief: as §2

[12] = tested on: ABUTH; experiment: Pre-emergence action against ABUTH; type: in vivo, Abutilon theophrasti; conditions: pre-emergence, dosage 320 g/ha, scored visually after 3 weeks vs untreated controls
Method in brief: as §2

[13] = tested on: ECHCG; experiment: Pre-emergence action against ECHCG; type: in vivo, Echinochloa crus-galli; conditions: pre-emergence, dosage 320 g/ha, scored visually after 3 weeks vs untreated controls
Method in brief: as §2

[14] = tested on: VERPE; experiment: Pre-emergence action against VERPE; type: in vivo, Veronica persica; conditions: Dosage 320 g/ha, pre-emergence
Method in brief: as §2

[15] = tested on: VERPE; experiment: Post-emergence action against VERPE; type: in vivo, Veronica persica; conditions: dosage 80 g/ha
Method in brief: as §1

[16] = tested on: ALOMY; experiment: Pre-emergence action against ALOMY; type: in vivo, Alopecurus myosuroides; conditions: dosage 320 g/ha; pre-emergence; scored visually after 3 weeks vs untreated controls; 100% = plants have died, 0% = like control plants
Method in brief: as §2

[17] = tested on: LOLRI; experiment: Pre-emergence action against LOLRI; type: in vivo, Lolium rigidum; conditions: dosage 320 g/ha, scored visually after 3 weeks vs untreated controls
Method in brief: as §2

[18] = tested on: MATIN; experiment: Pre-emergence action against MATIN; type: in vivo, Matricaria inodora; conditions: Dosage 320 g/ha, pre-emergence
Method in brief: as §2

[19] = tested on: ABUTH; experiment: Post-emergence action against ABUTH; type: in vivo, Abutilon theophrasti; conditions: post-emergence, dosage 80 g/ha, visual assessment about 3 weeks after treatment vs untreated controls
Method in brief: as §1

[20] = tested on: AVEFA; experiment: Post-emergence action against AVEFA; type: in vivo, Avena fatua; conditions: post-emergence, dosage 80 g/ha, visual assessment about 3 weeks after treatment vs untreated controls
Method in brief: as §1

[21] = tested on: VIOTR; experiment: Pre-emergence action against VIOTR; type: in vivo, Viola tricolor; conditions: Dosage 320 g/ha, pre-emergence
Method in brief: as §2

[22] = tested on: AMARE; experiment: Pre-emergence action against AMARE; type: in vivo, Amaranthus retroflexus; conditions: pre-emergence, dosage 320 g/ha, scored visually after 3 weeks vs untreated controls
Method in brief: as §2

[23] = tested on: AVEFA; experiment: Pre-emergence action against AVEFA; type: in vivo, Avena fatua; conditions: dosage 320 g/ha, scored visually after 3 weeks vs untreated controls
Method in brief: as §2

[24] = tested on: STEME; experiment: Post-emergence action against STEME; type: in vivo, Stellaria media; conditions: post-emergence, dosage 80 g/ha
Method in brief: as §1

CSc1c(C(=O)Nc2nnnn2C)ccc(C(F)(F)F)c1C(=O)C1CCC1 [1-284]
Post-emergence action against MATIN (herbicidal action in percent) [1]: 100%
Post-emergence action against PHBPU [2]: 90
Post-emergence action against DIGSA (herbicidal action in percent) [3]: 90%
Pre-emergence action against PHBPU [4]: 80%
Post-emergence action against AMARE (herbicidal action in percent) [5]: 100%
Pre-emergence action against HORMU [6]: 80%
Post-emergence action against ECHCG (herbicidal action in percent) [7]: 100%
Post-emergence action against VIOTR [8]: 100
Pre-emergence action against DIGSA (herbicidal activity) [9]: 100%
Pre-emergence action against STEME [10]: 100%
SETVI (Table B8, pre-emergence herbicidal activity) [11]: 100%
Pre-emergence action against ABUTH (herbicidal activity) [12]: 100%
Pre-emergence action against ECHCG (herbicidal activity) [13]: 100%
Pre-emergence action against VERPE [14]: 100%
Post-emergence action against VERPE [15]: 90
Pre-emergence action against ALOMY (herbicidal activity in percent) [16]: 90%
Pre-emergence action against LOLRI (herbicidal activity) [17]: 90%
Pre-emergence action against MATIN [18]: 100%
Post-emergence action against ABUTH (herbicidal action in percent) [19]: 100%
Post-emergence action against AVEFA (herbicidal action in percent) [20]: 80%
Pre-emergence action against VIOTR [21]: 90%
Pre-emergence action against AMARE (herbicidal activity) [22]: 100%
Pre-emergence action against AVEFA (herbicidal activity) [23]: 90%
Post-emergence action against STEME [24]: 100
